Assay results from patent publication US20240067685A1, “HIDDEN ANTIBIOTICS IN THE HUMAN PROTEOME” (priority 2022, published 2024).
No end group written: not given here.

Tests used:
[1] = tested on: S. aureus ATCC 12600; experiment: microbe, parasite or virus in culture; conditions: ATCC 12600
Procedure: (§1) Antimicrobial activity. The antimicrobial activity of ApoB-derived encrypted peptides was assessed against a panel of skin pathogens, such as S. epidermidis ATCC 35984, S. aureus ATCC 12600, A. baumannii ATCC 17878, K. pneumoniae ATCC 700603, S. aureus MRSA (WK7-2), E. faecalis ATCC 29212 and P. aeruginosa PAO1 by using the broth microdilution method. ^20 Bacteria were grown to mid-logarithmic phase in MHB at 37° C. […] Following incubation over-night, each sample was diluted, plated on TSA, and incubated at 37° C. for 24 h to count the number of colonies. All experiments were performed in three independent replicates.

[2] = tested on: S. epidermidis ATCC 35984; experiment: microbe, parasite or virus in culture; conditions: ATCC 35984
Procedure: as §1

[3] = tested on: K. pneumoniae ATCC 700603; experiment: microbe, parasite or virus in culture; conditions: ATCC 700603
Procedure: as §1

[4] = tested on: A. baumannii ATCC 17878; experiment: microbe, parasite or virus in culture; conditions: ATCC 17878
Procedure: as §1

[5] = in vitro; format: cell-based; conditions: human
Procedure: Cytokine-mediated immunogenicity is one potential side effect of peptide therapeutics as it can lead to cytotoxic effects and allergic responses. ^21,45 To determine whether the peptides exerted any toxic effects against eukaryotic cells and to verify their biocompatibility towards skin cell cultures, dose-response and time-course 3-(4, 5-dimethylthiazolyl-2)-2,5-diphenyltetrazolium bromide (MTT) and lactate dehydrogenase (LDH) cytotoxicity assays were performed against both human dermal fibroblasts (HDF) and human epidermoid carcinoma cell (A431) lines. Due to their cationic nature, most AMPs preferentially interact with negatively charged membranes, such as those of bacteria. […] To evaluate whether peptides exert cytostatic or cytotoxic effects through membrane damage, LDH release in culture medium was detected as a biomarker of membrane damage. ^50 Thus, human dermal fibroblasts (HDF) and human epidermoid carcinoma cells (A431) were treated with each peptide at a concentration of 10 and 20 μmol L^−1 for 72 h. No significant LDH release was detected, thus indicating no damage to eukaryotic cell membranes caused by exposure to the peptides (FIG. 7C).
Eukaryotic cell culture and cytotoxicity assays. […] Cell viability was expressed as means of the percentage values compared to control untreated cells. […]

[6] = tested on: Staphylococcus aureus ATCC 12600; format: cell-based; conditions: ATCC 12600, 16 h
Procedure: (§2) Antimicrobial activity of peptides upon pre-incubation in 10% serum. The antimicrobial activity of r(P)ApoBS^Pro and (ri)-r(P)ApoBS^Pro was evaluated against four bacterial strains upon pre-incubation in 10% FBS (fetal bovine serum, Microgem Lab, Cat. 51860, Italy). All the peptides were incubated for 1 h or 16 h in serum at 37° C. (water bath) prior to MIC value determination by standard protocols. ^20 Experiments were carried out in triplicate for each peptide.

[7] = tested on: Acinetobacter baumannii ATCC 17878; format: cell-based; conditions: ATCC 17878, 16 h
Procedure: as §2

[8] = tested on: Klebsiella pneumoniae ATCC 700603; format: cell-based; conditions: ATCC 700603, 16 h
Procedure: as §2

[9] = tested on: E. faecalis ATCC 29212
Procedure: as §1

[10] = tested on: S. aureus MRSA (WKZ-2)
Procedure: as §1

[11] = tested on: P. aeruginosa wild-type PAO1
Procedure: as §1

[12] = in vitro; conditions: 25% fetal bovine serum
Procedure: To determine its proteolytic stability, it was assessed whether (ri)-r(P)ApoBS^Pro was less susceptible to serum proteases compared to its parent peptide r(P)ApoBS^Pro.
Stability assay. The resistance to enzymatic degradation assay was performed according to the method described by Powell et al. ^72 Briefly, peptides at 2 mg mL^−1 were exposed to a solution of 25% fetal bovine serum in water. Aliquots were collected after 0.5, 1, 2, and 4 h and 10 μL of trifluoroacetic acid was added to them while the samples were on ice for 10 min. The enzymatic degradation of peptides was followed by reverse-phase high performance liquid chromatography coupled to mass spectrometry (RP-HPLC/ESI-MS). The percentage of remaining peptide was calculated by integrating the area under the curve related to the peptide at time point zero.
where AUCX is the area under the curve of the peak related to the peptide after t h (t=0.5, 1, 2, and 4 h), and AUC0 is the area under the curve of the peak related to the peptide at the beginning of the experiment. Three independent experimental replicates were performed, as previously described. ^73

“PHVALKPGKLKFIIPSPKRPVKLLSG [r(P)ApoBS^Pro]” gave an MIC [1] of 20 µM, an MIC [2] of 10 µM and an MIC [3] of 5 µM. The MIC [4] was 5 µM, the cytotoxicity at 24 h [5] was 30% and the “MIC upon incubation in serum” value [6] was > 80 µM. For the same sequence, the “MIC upon incubation in serum” value [7] was > 80 µM, the “MIC upon incubation in serum” value [8] was > 80 µM and the MIC [9] was 20 µM. The MIC [10] was 10 µM, the MIC [11] was 10 µM and the “stability in the presence of serum” value [12] was “degraded within minutes”. For the same sequence, the “exposure time after which peptide degraded” value ([12]; RP-HPLC/ESI-MS) was 30 min.
